SMILES strings stand for the structures.

Holding throughout (type): cell-based
In one test the test system is A431 WT. Briefly: Cell proliferation assay (CellTiter-Glo), A431 WT. To be noted: Homo sapiens, A-431; A431 WT cells, 72 hour incubation, CTG readout. The protocol:
(§1) • DMEM Medium (Gibco, Cat#11965118) • RPMI1640 Medium (Gibco, Cat#11875119) • Fetal Bovine Serum (FBS) (GBICO, Cat#10099-141) • CellTiter-Glo® Luminescent Cell Viability Assay Kit (Promega, Cat#G7572) 96-well, Black, Clear Flat Bottom Plate (Corning®, Cat# 3603)
(§2) • SpectraMax Multimode Microplate Reader MD, 2104-0010A; • CO2 Incubator, Thermo Scientific 3100 Series; • Biosafety Cabinet, Thermo Scientific, 1300 Series A2; • Inverted Microscope, Olympus, CKX41SF; • Siemens Refrigerator, KK25E76TI.
(§3) • 1. Cell Culture and Inoculation: • (1) Harvest cells in a logarithmic growth phase and count the cells using a […]. Test cell viability using a trypan blue exclusion method to ensure that cell viability is above 90%. • (2) Adjust the cell concentration to desired final density; and add 90 µL of cell suspension to a 96-well plate. • (3) Incubate the cells overnight at 37°C, under 5% CO2 and 95% humidity in the 96-well plate. • 2. T0 Reference Data: • (1) Add 10 µL PBS to each well of the T0 plate containing cells. • (2) Thaw the CTG reagent and equilibrate the plate to room temperature for 30 minutes. • (3) Add an equal volume of CTG solution to each well. • (4) Lyse cells by shaking on an orbital shaker for 5 minutes. • (5) Leave the plate at room temperature for 20 minutes to stabilize the luminescence signal. • (6) Read the T0 […]. • 3. Compound Dilution and Addition • (1) Add a corresponding volume of DMSO to a corresponding compound powder according to the compound information sheet to prepare a 10 mM stock solution. • (2) Prepare 1000-fold and 3.16-fold diluted compound solutions. • (3) Dilute the 1000× diluted compound solution 100-fold with PBS to prepare a 10-fold compound solution, with a maximum concentration of 10 µM, nine concentrations and 3.16-fold dilution. Then add 10 µL of the drug solution concentration to individual wells of the 96-well plate seeded with cells. Test each compound concentration in triplicate wells, and the final DMSO concentration is 0.1%. • (4) Incubate the cells in the 96-well plate containing the drug compounds at 37°C, under 5% CO2, and 95% humidity for an additional 72 hour period prior to performing the CTG analysis. • 4. Fluorescence Signal Reading • (1) Thaw the CTG reagent and equilibrate the plate to room temperature for 30 minutes. • (2) Add an equal volume of CTG solution to each well. • (3) Lyse cells by shaking on an orbital shaker for 5 minutes. • (4) Leave the plate at room temperature for 20 minutes to stabilize the […]. • (5) Read fluorescence value. • 5. Data Processing
(§4) Analyze the data by using GraphPad Prism 7.0 software, and use Non-linear S-curve regression to fit the dose-response curves, to calculate the IC50 values (in nM). The specific experiment results are presented in Table 1: [formula] Table 1: Biology Test Results
In general terms: In ATP-based viability assays light output follows the ATP content of the culture.

In test [1] the test system is Ba/F3 EGFR-L858R-T790M-C797S (LTC). The test is described as follows: Cell proliferation assay (CellTiter-Glo), Ba/F3 LTC. The settings on record: Mus musculus, BaF3; Ba/F3 EGFR-L858R-T790M-C797S cells, 72 hour incubation, CTG readout. How it is done:
as §1, §2, §3, §4

In test [2] the test system is Ba/F3 EGFR-DEL19-T790M-C797S (DTC). Briefly: Cell proliferation assay (CellTiter-Glo), Ba/F3 DTC. The settings on record: Ba/F3 EGFR-DEL19-T790M-C797S cells, 72 hour incubation, CTG readout; read-out: IC50 BaF3 DTC. The protocol: as §1, §2, §3, §4
Test [3] deals with Ba/F3 EGFR-L858R-C797S (LC). Briefly: Cell proliferation assay (CellTiter-Glo), Ba/F3 LC. To be noted: Mus musculus, BaF3; Ba/F3 EGFR-L858R-C797S cells, 72 hour incubation, CTG readout. How it is done:
as §1, §2, §3, §4

In test [4] the test system is Ba/F3 EGFR-DEL19-C797S (DC). Briefly: Cell proliferation assay (CellTiter-Glo), Ba/F3 DC. To be noted: Mus musculus, BaF3; Ba/F3 EGFR-DEL19-C797S cells, 72 hour incubation, CTG readout. How it is done:
as §1, §2, §3, §4

For the compound `CN1CCC(F)(C#Cc2nn3c4cc(ncc24)Nc2ccnc(n2)-c2cnn(C)c2OCC2(CCCC2)C3)CC1` [Example 9, 3'-((4-fluoro-1-methylpiperidin-4-yl)ethynyl)-1'-methyls piro(cyclopentane-1,6'-8-oxa-3-aza-4(6,1)-pyrazolo[4,3-c]pyridina-2(2,4)-pyrimidina-1(4,5)-pyrazolacyclooctaphane)], the IC50 worked out at 1920 nM in the test on A431 WT; 47 nM in test [1]; 18.4 nM in test [2]; 62.7 nM in test [3]; 32.8 nM in test [4].
The like results for `Cn1ncc2c1OCC1(CCC1)Cn1nc(N3CC(CS(C)(=O)=O)C3)c3cnc(cc31)Nc1ccnc-2n1` [Example 25, 1'-methyl-3'-(3-((methylsulfonyl)methyl)azetidin-1-yl)s piro(cyclobutane-1,6'-8-oxa-3-aza-4(6,1)-pyrazolo[4,3-c]pyridina-2(2,4)-pyrimidina-1(4,5)-pyrazolacyclooctaphane)] were, in that order, 571 nM, 106 nM, 42.6 nM, 123 nM and 66.5 nM.
For `Cn1ncc2c1OCC1(CCCC1)Cn1nc(N3CCC[C@@H](CS(C)(=O)=O)C3)c3cnc(cc31)Nc1ccnc-2n1` [Example 28, (R)-1'-methyl-3'-(3-((methylsulfonyl)methyl)piperidin-1-yl)spiro(cyclopentane-1, 6'-8-oxa-3-aza-4(6,1)-pyrazolo[4,3-c]pyridina-2(2,4)-pyrimidina-1(4,5)-pyrazolacyclooctaphane)], in that order: 682 nM, 86.9 nM, 12.4 nM, 45.7 nM and 12.8 nM.
For `Cn1ncc2c1OCC1(CCCC1)Cn1nc(N3CC[C@@H](CS(=O)(=O)C4CC4)C3)c3cnc(cc31)Nc1ccnc-2n1` [Example 30], in that order: 744 nM, 5.8 nM, 2.4 nM, 11.8 nM and 2.5 nM.
`Cn1ncc2c1OCC1(CCCC1)Cn1nc(N3CC[C@H](CS(=O)(=O)C4CCC4)C3)c3cnc(cc31)Nc1ccnc-2n1` [Example 44, (S)-3'-(3-((cyclobutylsulfonyl)methyl)pyrrolidin-1-yl)-1 '-methylspiro(cyclopentane-1,6'-8-oxa-3-aza-4(6,1)-pyrazolo[4,3-c]pyridina-2(2,4)-pyrimidina-1(4,5)-pyrazolacyclooctaphane)]: the IC50 in the test with A431 WT was 1130 nM; in test [1], 1.9 nM; in test [2], 4 nM; in test [3], 5.3 nM; in test [4], 10.1 nM.
The like results for `Cn1ncc2c1OCC1(CCCCC1)Cn1nc(N3CC[C@H](CS(C)(=O)=O)C3)c3cnc(cc31)Nc1ccnc-2n1` [Example 36, (S)-1'-methyl-3'-(3-((methylsulfonyl)methyl)pyrrolidin-1-yl)spiro(cyclohexane-1,6' -8-oxa-3-aza-4(6,1)-pyrazolo[4,3-c]pyridina-2(2,4)-pyrimidina-1(4,5)-pyrazolacyclooctaphane)] were, in that order, 614 nM, 2 nM, 1.5 nM, 5.1 nM and 2.5 nM.
For `CN1CCC(C#Cc2nn3c4cc(ncc24)Nc2ccnc(n2)-c2cnn(C)c2OCC2(CCCC2)C3)C1` (centres unmarked) [Example 2, 1'-methyl-3-((1-methylpyrrolidin-3-yl)ethynyl)spiro(cyclopentane-1,6'-8-oxa-3-aza-4(6,1)-pyrazolo[4,3-c]pyridina-2(2,4)-pyrimidina-1(4,5)-pyrazolacyclooctaphane)], in that order: 603 nM, 12.8 nM, 17.5 nM, 21.1 nM and 30.4 nM.
For `CN1CCC(F)(C#Cc2nn3c4cc(ncc24)Nc2ccnc(n2)-c2cnn(C)c2OCC2(CCOCC2)C3)CC1` [Example 11, 3'-((4-fluoro-1-methylpiperidin-4-yl)ethynyl)-1'-methyl-2,3,5,6-tetrahydrospiro(pyran-4,6'-8-oxa-3-aza-4(6,1)-pyrazolo[4,3-c]pyridina-2(2,4)-pyrimidina-1(4,5)-pyrazolacyclooctaphane)], in that order: 807 nM, 133 nM, 92.2 nM, 187 nM and 128 nM.
Turning to `Cn1ncc2c1OCC1(CCCC1)Cn1nc(N3CC[C@H](CS(=O)(=O)C4CCCC4)C3)c3cnc(cc31)Nc1ccnc-2n1` [Example 45, (S)-3'-(3-((cyclopentylsulfonyl)methyl)pyrrolidin-1-yl)-1'-methylspiro(cyclopentane-1,6'-8-oxa-3-aza-4(6,1)-pyrazolo[4,3-c]pyridina-2(2, 4)-pyrimidina-1(4,5)-pyrazolacyclooctaphane)], the IC50 in the test on A431 WT turned out to be 738 nM; in test [1], 1.1 nM; in test [2], 3.9 nM; in test [3], 2.9 nM; in test [4], 4 nM.
For `Cn1ncc2c1OCC1(CCCC1)Cn1nc(N3CC(CS(C)(=O)=O)C3)c3cnc(cc31)Nc1ccnc-2n1` [Example 26, 1'-methyl-3'-(3-((methylsulfonyl)methyl)azetidin-1-yl)s piro(cyclopentane-1,6'-8-oxa-3-aza-4(6,1)-pyrazolo[4,3-c]pyridina-2(2,4)-pyrimidina-1(4,5)-pyrazolacyclooctaphane)], in that order: 645 nM, 28.5 nM, 16.3 nM, 33.5 nM and 11.4 nM.
The like results for `Cn1ncc2c1OCC1(CCCC1)Cn1nc(N3CC[C@@H](NS(=O)(=O)C4CC4)C3)c3cnc(cc31)Nc1ccnc-2n1` [Example 58, (R)-N-(1-(1'-methylspiro(cyclopentane-1,6'-8-oxa-3-aza-4(6,1)-pyrazolo[4,3-c]pyridina-2(2,4)-pyrimidina-1(4,5) -pyrazolacyclooctaphane)-3' -yl)pyrrolidin-3-yl)cyclopro panesulfonamide] were, in that order, 911 nM, 2.1 nM, 2.8 nM, 6.9 nM and 7.2 nM.
The like results for `Cn1ncc2c1OCC1(CCCC1)Cn1nc(N3CC[C@@H](CO)C3)c3cnc(cc31)Nc1ccnc-2n1` [Example 21, (R)-(1-(1'-methylspiro(cyclopentane-1,6'-8-oxa-3-aza-4(6,1)-pyrazolo[4,3-c]pyridina-2(2,4)-pyrimidina-1(4,5) -pyrazolacyclooctaphane)-3 '-yl)pyrrolidin-3-yl)methanol] were, in that order, 171 nM, 4.7 nM, 3.4 nM, 15.8 nM and 7.1 nM.
As to `CC(C)S(=O)(=O)C[C@@H]1CCN(c2nn3c4cc(ncc24)Nc2ccnc(n2)-c2cnn(C)c2OCC2(CCCC2)C3)C1` [Example 31, (R)-3'-(3-((isopropylsulfonyl)methyl)pyrrolidin-1-yl)-1 '-methylspiro(cyclopentane-1,6'-8-oxa-3-aza-4(6,1)-pyrazolo[4,3-c]pyridina-2(2,4)-pyrimidina-1(4,5)-pyrazolacyclooctaphane)], the IC50 in the test on A431 WT worked out at 366 nM; in test [1], 4.3 nM; in test [2], 4.8 nM; in test [3], 10.8 nM; in test [4], 3.5 nM.

Usually IC50 stands for the concentration needed to halve the response being measured.

Values taken from EP4563579A1, “MACROCYCLIC EGFR INHIBITOR, AND PREPARATION METHOD THEREFOR AND PHARMACEUTICAL USE THEREOF” (Abbisko Therapeutics Co., Ltd., priority 2022, dated 2024).
